Measurements published in US11535679B2, “Bispecific antibody against CD3 and CD20 in combination therapy for treating follicular lymphoma” (GENMAB A/S, priority 2020, dated 2022).

How the values were obtained:
[1] = system: T cells in presence of Raji cells; experiment: In vitro T-cell activation assay, T cells incubated with Raji cells; type: cell-based, human; conditions: Raji target cells
Procedure: (§1) Briefly, Human Burkitt lymphoma (Raji [ATCC, cat. no. CCL-86]) and DLBCL (SU-DHL-4 [Deutsche Sammlung von Mikroorganismen and Zellkulturen—DSMZ, cat. no. ACC-495]) cell lines were used as target cells. Cells were cultured in culture medium (RPMI 1640 with HEPES and L-Glutamine supplemented with 10% heat-inactivated donor bovine serum with iron, and 1% [v/v] penicillin/streptomycin) to which 2 mM L-glutamine, and 1 mM sodium pyruvate were added, at 37° C., 5% CO2. T cells, which were isolated from human healthy donor buffy coats by negative selection using the RosetteSep™ Human T Cell Enrichment Cocktail (Stemcell Technologies) followed by density centrifugation over a Ficoll gradient, both according to the manufacturer's instructions, were used as effector cells. Isolated cells were washed twice in phosphate buffered saline (PBS) and counted using acridine orange/propidium iodide (AO/PI) viability staining solution (Nexcelom Bioscience) on a Cellometer® Auto 2000 Cell Viability Counter. T cells (100,000 cells/well) were incubated with Raji or SU-DHL-4 cells (50,000 cells/well) in culture medium in the presence of epcoritamab (0.033 pg/mL-333 ng/mL) and bendamustine (0-20 μM) at 37° C., 5% CO2 for 48 hours. B-cell viability and T-cell activation were measured by flow cytometry (count of CD22-positive cells; expression of the activation markers CD69, CD25, and CD107 [LAMP-1] on CD4+ and CD8+ T cells). The percentage cytotoxicity was calculated as follows: % cytotoxicity=100−([cell countsample/cell countno antibody]×100%)

[2] = system: T cells in presence of SU-DHL-4 cells; experiment: In vitro T-cell activation assay, T cells incubated with SU-DHL-4 cells; type: cell-based, human; conditions: SU-DHL-4 target cells
Procedure: as §1

R/R B-NHL patients = experiment: Ongoing clinical trial of epcoritamab monotherapy (NCT03625037); type: in vivo, human; conditions: preliminary data
Source text: Epcoritamab as monotherapy is currently in a clinical trial for the treatment of relapsed/refractory (R/R) B-NHL (ClinicalTrials.gov Identifier: NCT03625037).

[3] = system: CD20-expressing Raji-luc tumor cells; conditions: NOD-SCID mice injected with Raji-luc tumor cells and PBMCs; even in presence of excess IgG1-RTX-FEAR; cited from earlier work
[4] = system: primary DLBCL and follicular lymphoma patient biopsies; conditions: biopsies taken a certain time after anti-CD20 antibody administration; cited from earlier work
follicular lymphoma = conditions: double-refractory cases; cited from earlier work
CD20 = target: T1, CD20 (Homo sapiens, UniProt P11836); conditions: rituximab versus IgG1-CD20; different epitopes; cited from earlier work
T1 sequence (P11836 1-297): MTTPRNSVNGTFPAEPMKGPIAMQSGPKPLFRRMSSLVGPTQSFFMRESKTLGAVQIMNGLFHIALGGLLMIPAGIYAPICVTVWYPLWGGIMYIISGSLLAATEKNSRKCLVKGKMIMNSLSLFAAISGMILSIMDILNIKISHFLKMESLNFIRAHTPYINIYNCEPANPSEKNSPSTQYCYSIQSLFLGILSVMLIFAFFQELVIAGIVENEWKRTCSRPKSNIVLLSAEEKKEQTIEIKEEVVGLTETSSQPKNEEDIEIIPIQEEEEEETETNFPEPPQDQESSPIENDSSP

Raji cells = type: cell-based, human; conditions: bendamustine alone, 0-20 μM, 48 hours
Procedure: as §1, with “T cells (100,000 cells/well) were incubated with Raji or SU-DHL-4 cells (50,000 cells/well) in culture medium in the presence of epcoritamab (0.033 pg/mL-333 ng/mL) and bendamustine (0-20 μM) at 37° C., 5% CO2 for 48 hours.” left out

SU-DHL-4 cells = type: cell-based, human; conditions: bendamustine alone, 0-20 μM, 48 hours
Procedure: as §1, with “T cells (100,000 cells/well) were incubated with Raji or SU-DHL-4 cells (50,000 cells/well) in culture medium in the presence of epcoritamab (0.033 pg/mL-333 ng/mL) and bendamustine (0-20 μM) at 37° C., 5% CO2 for 48 hours.” left out

[5] = bendamustine 0-20 μM, data not shown
[6] = epcoritamab 0.033 pg/mL-333 ng/mL, 48 hours

Molecule: Epcoritamab: IgG1 bispecific CD3xCD20 antibody, heavy/light chains SEQ ID NOs: 24, 25 and 26, 27; CAS 2134641-34-0
- epcoritamab-induced T-cell activation in presence of bendamustine ([1]; bendamustine 0-20 μM, 48 hours): not affected by the presence of bendamustine at all concentrations tested
- upregulation of activation markers on CD4+ T cells in presence of bendamustine [1, 5]: not affected by bendamustine
- activation of CD8+ T cells (CD69, CD25, LAMP-1 upregulation) [1, 6]: induced concentration-dependent activation of CD8+ T cells
- epcoritamab-induced T-cell activation in presence of bendamustine ([2]; bendamustine 0-20 μM, 48 hours): not affected by the presence of bendamustine at all concentrations tested
- upregulation of activation markers on CD4+ T cells in presence of bendamustine [2, 5]: not affected by bendamustine
- activation of CD8+ T cells (CD69, CD25, LAMP-1 upregulation) [2, 6]: induced concentration-dependent activation of CD8+ T cells
- tolerability (R/R B-NHL patients): tolerated at doses up to at least 48 mg, including 60 mg
- tumor growth [3]: effectively reduce tumor growth
- T-cell-mediated cytotoxicity [4]: induced T-cell-mediated cytotoxicity

Molecule: CC[C@H](Nc1ncnc2[nH]cnc12)c1nc2cccc(F)c2c(=O)n1-c1ccccc1 [idelalisib]
- 1-year PFS (follicular lymphoma): 43%
- toxicities (follicular lymphoma): several toxicities leading to treatment discontinuation

Molecule: IgG1-CD20: CD20 antibody of which the CD20 arm of epcoritamab is derived
- competition for CD20 binding (CD20): compete for CD20 binding

Molecule: Cn1c(CCCC(=O)O)nc2cc(N(CCCl)CCCl)ccc21 [bendamustine, 4-[5-[Bis(2-chloroethyl)amino]-1-methyl-1H-benzo[d]imidazole-2-yl]butanoic acid]
- number of viable B cells (Raji cells): decreased the number of viable B cells in a dose dependent manner
- number of viable B cells (SU-DHL-4 cells): decreased the number of viable B cells in a dose dependent manner
